These results are taken from publication PMC12296492 (Cell Reports Methods, 2025).

The target of test [1] is human STING ligand-binding domain (hSTING-LBD) (Homo sapiens, UniProt Q86WV6). Description: BLI Kd.
The target of test [2] is T1, mouse STING ligand-binding domain (mSTING-LBD) (Mus musculus, UniProt Q3TBT3).
T1 sequence (Q3TBT3 146-370): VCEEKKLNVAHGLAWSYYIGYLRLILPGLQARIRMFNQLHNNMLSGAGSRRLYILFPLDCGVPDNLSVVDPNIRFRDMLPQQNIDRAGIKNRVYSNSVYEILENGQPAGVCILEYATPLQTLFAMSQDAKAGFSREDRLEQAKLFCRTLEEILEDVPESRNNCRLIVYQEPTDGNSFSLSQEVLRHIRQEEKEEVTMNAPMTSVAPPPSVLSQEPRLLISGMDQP
In words: BLI. In general terms: Biolayer interferometry detects binding as a change in optical thickness at a sensor tip.

human STING ligand-binding domain (hSTING-LBD), sequence (Q86WV6 155-343): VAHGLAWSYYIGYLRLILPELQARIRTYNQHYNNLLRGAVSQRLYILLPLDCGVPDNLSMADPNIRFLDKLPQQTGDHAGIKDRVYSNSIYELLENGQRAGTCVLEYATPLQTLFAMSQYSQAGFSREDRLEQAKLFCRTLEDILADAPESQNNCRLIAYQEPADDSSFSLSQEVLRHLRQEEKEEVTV

For the molecule `C=CCc1ccc(O)c(-c2ccc(O)c(CC=C)c2)c1` [honokiol], the Kd was 12.9 ± 0.4 µM in test [1] and 17 ± 0.5 µM in test [2].

The Kd is the constant that tells how readily two partners part at equilibrium. High values mean a looser complex, low ones a tighter complex.
